Measurements as given in the NIST ThermoML archive (doi:10.1016/j.jct.2015.08.014).
Numbers after ± are expanded uncertainties.

Conditions: Liquid; for electrical conductivity: Alternating current cell with electrodes; for viscosity: Capillary tube (Ostwald / Ubbelohde) method; for mass density: Vibrating tube method

CCCC[N+]1(C)CCCC1.N#CN=C=[N-] [1-butyl-1-methylpyrrolidinium dicyanamide]
electrical conductivity [S/m], 100 kPa
Conditions | 298.15 K | 303.15 K | 313.15 K | 323.15 K
Frequency=0.0005 MHz | – | 1.525 ± 0.015 | 1.99 ± 0.02 | 2.525 ± 0.025
Frequency=0.001 MHz | – | 1.526 ± 0.015 | 2 ± 0.02 | 2.526 ± 0.025
Frequency=0.0015 MHz | – | 1.526 ± 0.015 | 2 ± 0.02 | 2.527 ± 0.025
Frequency=0.002 MHz | – | 1.527 ± 0.015 | 2 ± 0.02 | 2.528 ± 0.025
Frequency=0.0025 MHz | – | 1.527 ± 0.015 | 2 ± 0.02 | 2.528 ± 0.025
Frequency=0.003 MHz | – | 1.527 ± 0.015 | 2 ± 0.02 | 2.528 ± 0.025
Frequency=0.00347222 MHz | – | 1.527 ± 0.015 | 2 ± 0.02 | 2.528 ± 0.025
Frequency=0.004 MHz | – | 1.527 ± 0.015 | 2 ± 0.02 | 2.529 ± 0.025
Frequency=0.00446429 MHz | – | 1.527 ± 0.015 | 2 ± 0.02 | 2.529 ± 0.025
Frequency=0.005 MHz | – | 1.527 ± 0.015 | 2 ± 0.02 | 2.529 ± 0.025
Frequency=0.005454 MHz | – | 1.527 ± 0.015 | 2 ± 0.02 | 2.529 ± 0.025
Frequency=0.006 MHz | – | 1.527 ± 0.015 | 2 ± 0.02 | 2.529 ± 0.025
Frequency=0.00652174 MHz | 1.317 ± 0.013 | 1.527 ± 0.015 | 2 ± 0.02 | 2.529 ± 0.025
Frequency=0.00694444 MHz | 1.317 ± 0.013 | 1.527 ± 0.015 | 2 ± 0.02 | 2.529 ± 0.025
Frequency=0.0075 MHz | 1.318 ± 0.013 | 1.527 ± 0.015 | 2 ± 0.02 | 2.529 ± 0.025
Frequency=0.008 MHz | 1.318 ± 0.013 | 1.527 ± 0.015 | 2 ± 0.02 | 2.529 ± 0.025
Frequency=0.00857143 MHz | 1.318 ± 0.013 | 1.527 ± 0.015 | 2 ± 0.02 | 2.529 ± 0.025
Frequency=0.00892857 MHz | 1.318 ± 0.013 | 1.527 ± 0.015 | 2 ± 0.02 | 2.529 ± 0.025
Frequency=0.00961538 MHz | 1.318 ± 0.013 | 1.527 ± 0.015 | 2 ± 0.02 | 2.529 ± 0.025
Frequency=0.01 MHz | 1.318 ± 0.013 | 1.527 ± 0.015 | 2 ± 0.02 | 2.529 ± 0.025

101.33 kPa
Conditions | electrical conductivity [S/m] | mass density [kg/m3] | viscosity [mPa·s]
298.15 K | 1.317 ± 0.013 | 1013.45 ± 8.1 | 33.71 ± 0.77
303.15 K | 1.527 ± 0.015 | 1010.64 ± 8.1 | 28.53 ± 0.65
308.15 K | 1.75 ± 0.018 | 1007.84 ± 8.1 | 24.53 ± 0.56
313.15 K | 2 ± 0.02 | 1005.06 ± 8.1 | 21.07 ± 0.48
318.15 K | 2.25 ± 0.023 | 1002.28 ± 8.1 | 18.37 ± 0.42
323.15 K | 2.529 ± 0.025 | 999.525 ± 8 | 16.15 ± 0.37
328.15 K | – | 996.781 ± 8 | –
333.15 K | – | 994.049 ± 8 | –
